Source: ChEMBL document CHEMBL1154028, “Pyrazole acids as niacin receptor agonists for the treatment of dyslipidemia” (Bioorg Med Chem Lett, 2009)
Activity calls are given as the source filed them. The calls are words filed in the database; no cut-off is given here.

Columns and labels:
[1] = molecular target: Hydroxycarboxylic acid receptor 2 (Homo sapiens) (UniProt Q8TDS4); test: Displacement of [3H]niacin from human niacin receptor expressed in […] cells at 25 uM in presence of 5% human serum; type: cell-based
Sequence of Hydroxycarboxylic acid receptor 2 (Homo sapiens) (Q8TDS4 whole entry): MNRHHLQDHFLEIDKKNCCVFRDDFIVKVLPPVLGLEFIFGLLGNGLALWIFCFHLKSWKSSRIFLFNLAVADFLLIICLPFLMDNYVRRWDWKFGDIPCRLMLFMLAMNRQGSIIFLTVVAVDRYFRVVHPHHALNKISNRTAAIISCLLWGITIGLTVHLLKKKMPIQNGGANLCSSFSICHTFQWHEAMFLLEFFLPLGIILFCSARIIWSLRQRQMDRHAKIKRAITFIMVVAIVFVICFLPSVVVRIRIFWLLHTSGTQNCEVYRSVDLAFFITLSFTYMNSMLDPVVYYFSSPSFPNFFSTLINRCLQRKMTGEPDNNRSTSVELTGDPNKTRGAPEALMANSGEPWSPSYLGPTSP

[2] = molecular target: Hydroxycarboxylic acid receptor 2 (Homo sapiens) (UniProt Q8TDS4); test: Displacement of [3H]niacin from human niacin receptor expressed in […] cells at 25 uM in absence of 5% human serum; type: cell-based
[3] = tested on: Rattus norvegicus; test: Decrease in blood free fatty acid level in rat at 3 mg/kg, po; type: functional; design: scale not given: the % may be the effect or the level left
[4] = tested on: Rattus norvegicus; test: Toxicity in rat assessed as changes in rat ear blood perfusion upto 30 mg/kg, sc; type: organism-based; design: dose 30 mg/kg, route subcutaneous; conditions: in vivo
[5] = tested on: Blood; test: Drug level in rat blood at 30 mg/kg, sc; type: ADME, organism-based; design: dose 30 mg/kg, route subcutaneous; conditions: in vivo, read-out: Drug uptake
[6] = tested on: Rattus norvegicus; test: Decrease in blood free fatty acid level in po dosed rat
[7] = Volume of distribution at steady state in mouse at 1 mg/kg, iv or 2 mg/kg, po; type: ADME, organism-based; conditions: in vivo, read-out: Vdss
[8] = Plasma clearance in mouse at 1 mg/kg, iv or 2 mg/kg, po; type: ADME, organism-based
[9] = Cmax in mouse at 1 mg/kg, iv or 2 mg/kg, po; type: ADME, organism-based; conditions: in vivo
[10] = Half life in mouse at 1 mg/kg, iv or 2 mg/kg, po; type: ADME, organism-based; conditions: in vivo
[11] = Oral bioavailability in mouse at 2 mg/kg; type: ADME, organism-based; conditions: in vivo
[12] = tested on: Rattus norvegicus; test: Decrease in blood free fatty acid level in rat at 100 mg/kg, po after 20 mins; type: functional, organism-based; design: dose 100 mg/kg

Fc1ncccc1C1CCC2=C(C1)C(=C1N=NN=N1)N=N2 (centres undefined)
Activity [1]: 75%
Activity [2]: 40%

O=C(O)c1n[nH]c2c1CC(c1ccnc(F)c1)CC2 (racemic)
Activity [1]: 69%
Activity [2]: 60%

O=C(O)c1n[nH]c2c1CC(c1ccccc1Cl)CC2 (racemic)
Activity [1]: 20%

Br.O=C(O)c1n[nH]c2c1CC(c1cc(F)ccc1F)CC2 (centres undefined)
Activity [3]: 50%
Activity [4]: Non-toxic
concentration [5]: 135 µM
EC50 [6]: 3000 nM

O=C(O)c1n[nH]c2c1CC(c1ccccc1)CC2 (racemic)
Activity [1]: 35%
Activity [2]: 19%

O=C(O)c1n[nH]c2c1CC(c1cc(F)ccc1F)CC2 (racemic)
Vd [7]: 1.4 L/kg
clearance [8]: 8.3 mL/min/kg
Cmax [9]: 3.3 µM
half-life [10]: 2.9 h
bioavailability [11]: 53%

O=C(O)c1n[nH]c2c1CC(c1cc(F)ccc1F)CC2 (centres undefined)
Activity [1]: 84%
Activity [12]: Active
Activity [2]: 56%

O=C(O)c1n[nH]c2c1CCC(c1ccccc1)C2 (racemic)
Activity [2]: 63%

O=C(O)c1n[nH]c2c1CC(c1cccnc1F)CC2 (racemic)
Vd [7]: 2.4 L/kg
clearance [8]: 21 mL/min/kg
Activity [1]: 88%
Cmax [9]: 2.3 µM
Activity [2]: 90%
half-life [10]: 2.6 h
bioavailability [11]: 47%

Fc1ccc(F)c(C2CCc3[nH]nc(-c4nnn[nH]4)c3C2)c1 (racemic)
Activity [1]: 17%

O=C(O)c1n[nH]c2c1CC(c1ccccc1F)CC2 (racemic)
Activity [1]: 18%
